Data: patent US10253039B2, “Inhibitors of bacterial DNA gyrase with efficacy against gram-negative bacteria” (priority 2014, dated 2019)
≈ marks a conversion by molar mass, not a printed value.

What was measured:
Format in all cases: cell-based
E. coli BW25113 = assay: MIC, microdilution in 96-well plates; details: Escherichia coli, BW25113, B: E. coli BW25113; read-out: MIC
In short: (§1)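 Inoculum 1:10000 (LB, log-phase subculture). Triplicate twofold dilutions plus DMSO column. 37° C., shaken, 16-18 h. Lowest non-turbid well = MIC. CLSI method.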

Edwardsiella tarda = assay: MIC, microdilution in 96-well plates; details: D: Edwardsiella tarda
In short: as §1

E. coli JW5503 (deltolC) = assay: MIC, 20-strain panel; details: Escherichia coli, C: E. coli JW5503 (deltolC)
In short: as §1

E. coli MG1655 = assay: MIC, 20-strain panel; details: Escherichia coli, MG1655, A: E. coli MG1655; read-out: MIC
In short: as §1

[1] = system: Klebsiella pneumoniae subsp. pneumoniae; assay: MIC, 20-strain panel; details: E: Klebsiella pneumoniae subsp. pneumoniae
In short: as §1

[2] = system: Salmonella enterica subsp. enterica typhimurium; assay: MIC, 20-strain panel; details: F: Salmonella enterica subsp. enterica Typhimurium
In short: as §1

Shigella flexneri = assay: MIC, 20-strain panel; details: G: Shigella flexneri
In short: as §1

[3] = system: Staphylococcus aureus subsp. aureus; assay: MIC, 20-strain panel; details: H: Staphylococcus aureus subsp. aureus, read-out: MIC
In short: as §1

[4] = system: Staphylococcus epidermidis; assay: MIC, 20-strain panel
In short: as §1

[5] = system: Staphylococcus saprophyticus subsp. saprophyticus; assay: MIC, 20-strain panel
In short: as §1

Streptococcus agalactiae = assay: MIC, 20-strain panel
In short: as §1

Streptococcus pyogenes = assay: MIC, 20-strain panel
In short: as §1

SMILES | MIC (E. coli BW25113) | MIC (Edwardsiella tarda) | MIC (E. coli JW5503 (deltolC)) | MIC (E. coli MG1655) | MIC [1] | MIC [2] | MIC (Shigella flexneri) | MIC [3] | MIC [4] | MIC [5] | MIC (Streptococcus agalactiae) | MIC (Streptococcus pyogenes)
O=S(=O)(N[C@@H]1CCN(Cc2ccc3c(c2)OCCO3)C1)c1cccc(C(F)(F)F)c1 [Compound 60] | > 8 µg/mL | > 8 µg/mL | 8 µg/mL (≈ 18.1 µM) | > 8 µg/mL | > 8 µg/mL | > 8 µg/mL | > 8 µg/mL | > 8 µg/mL | > 8 µg/mL | > 8 µg/mL | > 8 µg/mL | > 8 µg/mL
COc1ccc(-c2ccc(CN3CC[C@@H](NS(=O)(=O)c4cccc(C(F)(F)F)c4)C3)cc2)cc1 [Compound 61] | > 8 µg/mL | > 8 µg/mL | 4 µg/mL (≈ 8.15 µM) | > 8 µg/mL | > 8 µg/mL | > 8 µg/mL | > 8 µg/mL | > 8 µg/mL | ~8 µg/mL (≈ 16.3 µM) | > 8 µg/mL | > 8 µg/mL | ~8 µg/mL (≈ 16.3 µM)
O=S(=O)(N[C@@H]1CCN(Cc2ccc3c(c2)OCCO3)C1)c1cccc(OC(F)(F)F)c1 [Compound 62] | > 8 µg/mL | > 8 µg/mL | 8 µg/mL (≈ 17.4 µM) | > 8 µg/mL | > 8 µg/mL | > 8 µg/mL | > 8 µg/mL | > 8 µg/mL | > 8 µg/mL | > 8 µg/mL | > 8 µg/mL | > 8 µg/mL
O=S(=O)(N[C@@H]1CCN(Cc2ccc(-c3cncnc3)cc2)C1)c1cccc(OC(F)(F)F)c1 [Compound 63] | > 8 µg/mL | > 8 µg/mL | 4 µg/mL (≈ 8.36 µM) | > 8 µg/mL | > 8 µg/mL | > 8 µg/mL | > 8 µg/mL | > 8 µg/mL | > 8 µg/mL | > 8 µg/mL | > 8 µg/mL | > 8 µg/mL
O=S(=O)(N[C@@H]1CCN(Cc2ccc(OCC(F)F)cc2)C1)c1cccc(C(F)(F)F)c1 [Compound 64] | > 8 µg/mL | > 8 µg/mL | 0.25 µg/mL (≈ 0.538 µM) | > 8 µg/mL | > 8 µg/mL | 4 µg/mL (≈ 8.61 µM) | > 8 µg/mL | > 8 µg/mL | > 8 µg/mL | > 8 µg/mL | > 8 µg/mL | > 8 µg/mL
O=S(=O)(N[C@@H]1CCN(Cc2ccc(OC3CC3)cc2)C1)c1cc(S(=O)(=O)c2ccccc2)cs1 [Compound 65] | > 8 µg/mL | > 8 µg/mL | > 8 µg/mL | > 8 µg/mL | > 8 µg/mL | > 8 µg/mL | > 8 µg/mL | > 8 µg/mL | > 8 µg/mL | > 8 µg/mL | > 8 µg/mL | > 8 µg/mL
COc1ccccc1-c1ccc(CN2CC[C@@H](NS(=O)(=O)c3cccc(C(F)(F)F)c3)C2)cc1 [Compound 66] | > 8 µg/mL | > 8 µg/mL | 4 µg/mL (≈ 8.15 µM) | > 8 µg/mL | > 8 µg/mL | > 8 µg/mL | > 8 µg/mL | > 8 µg/mL | 8 µg/mL (≈ 16.3 µM) | > 8 µg/mL | > 8 µg/mL | > 8 µg/mL
N#Cc1cccc(S(=O)(=O)N[C@@H]2CCN(Cc3ccc(-c4ccncc4)cc3)C2)c1 [Compound 67] | > 8 µg/mL | > 8 µg/mL | 4 µg/mL (≈ 9.56 µM) | > 8 µg/mL | > 8 µg/mL | > 8 µg/mL | > 8 µg/mL | > 8 µg/mL | > 8 µg/mL | > 8 µg/mL | > 8 µg/mL | > 8 µg/mL
CC(=O)c1cc(S(=O)(=O)N[C@@H]2CCN(Cc3ccc(-c4ccccc4)cc3)C2)ccc1C [Compound 68] | > 8 µg/mL | > 8 µg/mL | 8 µg/mL (≈ 17.8 µM) | > 8 µg/mL | > 8 µg/mL | > 8 µg/mL | > 8 µg/mL | > 8 µg/mL | 8 µg/mL (≈ 17.8 µM) | > 8 µg/mL | > 8 µg/mL | > 8 µg/mL
O=S(=O)(N[C@@H]1CCN(Cc2ccc(-c3ccccc3Cl)cc2)C1)c1cccc(C(F)(F)F)c1 [Compound 69] | > 8 µg/mL | > 8 µg/mL | 8 µg/mL (≈ 16.2 µM) | > 8 µg/mL | > 8 µg/mL | > 8 µg/mL | > 8 µg/mL | > 8 µg/mL | 4 µg/mL (≈ 8.08 µM) | > 8 µg/mL | > 8 µg/mL | ~8 µg/mL (≈ 16.2 µM)
N#Cc1cccc(S(=O)(=O)N[C@@H]2CCN(Cc3ccc(-c4ccccc4Cl)cc3)C2)c1 [Compound 70] | > 8 µg/mL | > 8 µg/mL | 1 µg/mL (≈ 2.21 µM) | > 8 µg/mL | > 8 µg/mL | > 8 µg/mL | > 8 µg/mL | > 8 µg/mL | 8 µg/mL (≈ 17.7 µM) | > 8 µg/mL | > 8 µg/mL | > 8 µg/mL
O=S(=O)(N[C@@H]1CCN(Cc2ccc(-c3ccccc3)cc2)C1)c1cc(F)cc(C(F)(F)F)c1 [Compound 71] | > 8 µg/mL | > 8 µg/mL | 4 µg/mL (≈ 8.36 µM) | > 8 µg/mL | > 8 µg/mL | > 8 µg/mL | > 8 µg/mL | > 8 µg/mL | > 8 µg/mL | > 8 µg/mL | > 8 µg/mL | 8 µg/mL (≈ 16.7 µM)
Cc1ccc(S(C)(=O)=O)cc1S(=O)(=O)N[C@@H]1CCN(Cc2ccc(OC(C)C)cc2)C1 [Compound 72] | > 8 µg/mL | > 8 µg/mL | > 8 µg/mL | > 8 µg/mL | > 8 µg/mL | > 8 µg/mL | > 8 µg/mL | > 8 µg/mL | > 8 µg/mL | > 8 µg/mL | > 8 µg/mL | > 8 µg/mL
Cc1ccc(S(C)(=O)=O)cc1S(=O)(=O)N[C@@H]1CCN(Cc2ccc(-c3ccccc3)cc2)C1 [Compound 73] | > 8 µg/mL | > 8 µg/mL | 4 µg/mL (≈ 8.25 µM) | > 8 µg/mL | > 8 µg/mL | > 8 µg/mL | > 8 µg/mL | > 8 µg/mL | > 8 µg/mL | > 8 µg/mL | > 8 µg/mL | > 8 µg/mL
COc1ccc(-c2ccc(CN3CC[C@@H](NS(=O)(=O)c4cccc(OC(F)(F)F)c4)C3)cc2)cc1 [Compound 74] | > 8 µg/mL | > 8 µg/mL | 8 µg/mL (≈ 15.8 µM) | > 8 µg/mL | > 8 µg/mL | > 8 µg/mL | > 8 µg/mL | > 8 µg/mL | > 8 µg/mL | > 8 µg/mL | > 8 µg/mL | > 8 µg/mL
O=S(=O)(N[C@@H]1CCN(Cc2ccc(-c3ccccc3Cl)cc2)C1)c1cccc(OC(F)(F)F)c1 [Compound 75] | > 8 µg/mL | > 8 µg/mL | ~8 µg/mL (≈ 15.7 µM) | > 8 µg/mL | > 8 µg/mL | > 8 µg/mL | > 8 µg/mL | > 8 µg/mL | > 8 µg/mL | > 8 µg/mL | > 8 µg/mL | ~8 µg/mL (≈ 15.7 µM)
COc1ccccc1-c1ccc(CN2CC[C@@H](NS(=O)(=O)c3cccc(OC(F)(F)F)c3)C2)cc1 [Compound 76] | > 8 µg/mL | > 8 µg/mL | 8 µg/mL (≈ 15.8 µM) | > 8 µg/mL | > 8 µg/mL | > 8 µg/mL | > 8 µg/mL | > 8 µg/mL | > 8 µg/mL | > 8 µg/mL | > 8 µg/mL | > 8 µg/mL
CC(C)Oc1ccc(CN2CC[C@@H](NS(=O)(=O)c3cc(F)cc(C(F)(F)F)c3)C2)cc1 [Compound 78] | > 8 µg/mL | > 8 µg/mL | ~8 µg/mL (≈ 17.4 µM) | > 8 µg/mL | > 8 µg/mL | > 8 µg/mL | > 8 µg/mL | > 8 µg/mL | > 8 µg/mL | > 8 µg/mL | > 8 µg/mL | > 8 µg/mL
Cc1ccc(S(C)(=O)=O)cc1S(=O)(=O)N[C@@H]1CCN(Cc2ccc(OC3CC3)cc2)C1 [Compound 79] | > 8 µg/mL | > 8 µg/mL | > 8 µg/mL | > 8 µg/mL | > 8 µg/mL | > 8 µg/mL | > 8 µg/mL | > 8 µg/mL | > 8 µg/mL | > 8 µg/mL | > 8 µg/mL | > 8 µg/mL
COc1ccc(-c2ccc(CN3CC[C@@H](NS(=O)(=O)c4cccc(C#N)c4)C3)cc2)cc1 [Compound 80] | > 8 µg/mL | > 8 µg/mL | > 8 µg/mL | > 8 µg/mL | > 8 µg/mL | > 8 µg/mL | > 8 µg/mL | > 8 µg/mL | > 8 µg/mL | > 8 µg/mL | > 8 µg/mL | > 8 µg/mL
O=S(=O)(N[C@@H]1CCN(Cc2ccc(-c3ccccc3)cc2)C1)c1cc(C(F)(F)F)cc(C(F)(F)F)c1 [Compound 81] | > 8 µg/mL | > 8 µg/mL | > 8 µg/mL | > 8 µg/mL | > 8 µg/mL | > 8 µg/mL | > 8 µg/mL | > 8 µg/mL | 8 µg/mL (≈ 15.1 µM) | > 8 µg/mL | > 8 µg/mL | ~8 µg/mL (≈ 15.1 µM)
Cc1c(S(=O)(=O)N[C@@H]2CCN(Cc3ccc(-c4ccccc4)cc3)C2)sc2ccc(Cl)cc12 [Compound 82] | > 8 µg/mL | > 8 µg/mL | > 8 µg/mL | > 8 µg/mL | > 8 µg/mL | > 8 µg/mL | > 8 µg/mL | > 8 µg/mL | > 8 µg/mL | > 8 µg/mL | > 8 µg/mL | > 8 µg/mL
